Experimental data taken from patent US5188952A, “Process for the decomposition of acrylamide” (Imperial Chemical Industries PLC, priority 1986, dated 1993).

System: Methylophilus methylotrophus amidase (acylamide amidohydrolase EC No. 3-5-1-4)
Assay: Methylophilus methylotrophus amidase properties (Km)
Format: biochemical
Details: substrate of the amidase; conditions not given

SMILES | Km [mM]
CC(N)=O [Acetamide] | 0.2
C=CC(N)=O [Acrylamide] | 10
